# Measured values from US20220133738A1, “GENOTYPE AND DOSE-DEPENDENT RESPONSE TO AN ASBTI IN PATIENTS WITH BILE SALT EXPORT PUMP DEFICIENCY” (MIRUM PHARMACEUTICALS, INC., priority 2019, published 2022).
# “And” between values parts separate entries of the source, which are not always exact repeats. Equal entries are not always repeated.
# Assays:
# [1] = tested on: overweight and obese adults; experiment: Dose-ranging phase 1 clinical study (NCT02475317): fecal bile acid excretion with maralixibat and volixibat; format: in vivo, human; settings: for fBA excretion, mean change from baseline: baseline to day 6 and 7
# [2] = tested on: children with Alagille syndrome (ALGS); experiment: ICONIC phase 2b randomized placebo-controlled drug-withdrawal study with long-term extension of maralixibat in Alagille syndrome; settings: for C4, mean: baseline 7.4; for Serum cholesterol, mean: baseline 414.3; for ItchRO(Obs) Weekly Morning Average Score, Average Change from Baseline: week 48
# Protocol: Children aged 1-18 years with a diagnosis of ALGS and evidence of cholestasis were eligible to enroll in the ICONIC clinical study, see Tables 12-14. During a long-term extension, participants with sBA levels above the upper limit of normal and/or an ITCHRO(OBS) score >1.5 were eligible for the 400 μg/kg BID dose (all participants received the 400 μg/kg BID dose). Inclusion criteria for the ICONIC study included having cholestasis, which was defined as at least one of 1) sBA concentration (total sBA) >3× the upper limit of normal, 2) serum conjugated bilirubin concentration >1 mg/dL, 3) fat-soluble vitamin deficiency not otherwise explained, 4) serum gamma-glutamyl transferase concentration >3× the upper limit of normal, and 3) intractable pruritus explainable only by liver disease. Inclusion criteria also included having significant pruritus, which was defined as an average daily score of >2 on the ITCHRO(OBS) scale for 2 consecutive weeks (0=no pruritus; 4=most severe pruritus). Exclusion criteria included having surgically disrupted enterohepatic circulation, a liver transplant, decompensated cirrhosis, or having any liver disease other than ALGS.
# sBA responders were defined as those patients achieving ≥50% reduction from baseline in sBA at week 12 or 18. ITCHRO responders were defined as those patients achieving at least a 1-point reduction from Baseline in weekly morning ITCHRO(OBS) score at week 12 or 18.
# In the open label extension, the effect of higher doses was explored by increasing dosage to a maximum of 400 μg/kg BID in eligible participants.
# Efficacy assessments were based on changes from baseline in sBA concentration, weekly average ITCHRO(OBS) scores (0, none; 4, most severe), CSS score (0, none; 4 most severe), and Clinician Xanthoma Scale score (0, none; 4, disabling). […] During the long-term extension, efficacy assessments were conducted every 12 weeks.
# sBA were measured using a fully validated liquid chromatography-electrospray ionization-mass electrospray (LC-ESI-MS) method using stable-isotope dilution analysis to measure serum concentrations of principal bile acids (cholic, chenodeoxycholic, ursodeoxycholic, deoxycholic acid, lithocholic, and their corresponding glycine and taurine conjugates). […] Calibration standards of individual bile acids were in the range of 50-25,000 ng/mL and Quality Control samples were prepared at concentrations of 100, 500, 1000, 2500, and 20000 ng/mL. The intra- and inter-assay imprecision of the method for individual bile acids measured was within the accepted GLP quality assurance guidelines of <15% coefficient of variance for these QC samples. The lower limit of quantification of the assay was set at 100 ng/mL and the imprecision at this concentration was <20%. The limit of detection of the assay was 5 ng/mL. Total sBA is represented by the sum of the individual bile acid species measured.
# [3] = Withdrawal - Week 22, maralixibat group
# [4] = individual subjects, one line per Subject ID of Table 18
# [5] = individual subjects, one line per Subject ID of Table 19
# [6] = sBA Normalization (<8.5 μmol/L)
smiles,measurement,setting,value
CCCCC1(CCCC)CS(=O)(=O)c2ccc(N(C)C)cc2[C@@H](c2ccc(OCc3ccc(C[N+]45CCN(CC4)CC5)cc3)cc2)[C@H]1O [maralixibat],"fBA excretion, mean change from baseline","[1]; 10 mg dose (QD), 7 days",515 µmol
same,"fBA excretion, mean change from baseline","[1]; 20 mg dose (QD), 7 days",532 µmol
same,"fBA excretion, mean change from baseline","[1]; 50 mg BID, 7 days",1251 µmol
same,"fBA excretion, mean change from baseline","[1]; 100 mg QD, 7 days",1144 µmol
same,"fBA excretion, dose dependence","[1]; across tested doses, 7 days",increased in a dose-dependent manner
same,treatment-emergent adverse events,"[1]; all doses, 7 days","mild, and none were serious"
same,Mean serum 7αC4,"[1]; baseline to day 7, greatest change at maralixibat 50 mg BID",increased
same,Mean sBA levels,[1]; day 7 versus baseline,not elevated
same,"sBA, pruritus, and growth after the higher daily dose",[2]; 400 μg/kg BID relative to 400 μg/kg QD,further improvements
same,weight Z-scores,"[2]; 400 μg/kg BID versus 400 μg/kg QD, FIGS. 35-36",dose-dependent increase
same,"Height Z-score, increase from baseline","[2]; ICONIC participants, FIGS. 33-34, SE 0.1",0.5
same,"ItchRO (Obs) responders, Decrease from baseline ≥1",[2]; Open-label Week 18,67.7%
same,"ItchRO (Obs) responders, Decrease from baseline ≥1.25",[2]; Open-label Week 18,58.1%
same,"ItchRO (Obs) responders, Decrease from baseline ≥1.5",[2]; Open-label Week 18,51.6%
same,"ItchRO (Obs) responders, Decrease from baseline ≥1",[2]; Open-label Week 48,72.4%
same,"ItchRO (Obs) responders, Decrease from baseline ≥1.25",[2]; Open-label Week 48,58.6%
same,"ItchRO (Obs) responders, Decrease from baseline ≥1.5",[2]; Open-label Week 48,51.7%
same,"C4, mean","[2]; Week 48, n = 15",20.4 ng/mL
same,"Serum cholesterol, mean","[2]; Week 48, n = 15",340.3 mg/dL
same,"C4, mean","[2]; Week 191, n = 15",30.4 ng/mL
same,"Serum cholesterol, mean","[2]; Week 191, n = 15",277.5 mg/dL
same,"ItchRO (Obs) responders, Decrease from baseline ≥1",[2]; [3],53.8%
same,"ItchRO (Obs) responders, Decrease from baseline ≥1.25",[2]; [3],46.2%
same,"ItchRO (Obs) responders, Decrease from baseline ≥1.5",[2]; [3],23.1%
same,study days across participants with minimal or no pruritus (ITCHRO(OBS)≤1),[2]; after 98 weeks,over 89%
same,Clinician xanthoma scale scores,[2]; all participants by week 48 (p<0.01),improved significantly
same,"sBA levels, reduction from baseline","[2]; at 191 weeks, long-term extension",about 57%
same,"ITCHRO(OBS) score, mean change from baseline","[2]; at 191 weeks, SE 0.2",−2.5
same,"CSS score, mean reduction","[2]; at 191 weeks, SE 0.4",2.4 points
same,ITCHRO(OBS) final score,[2]; at 193 weeks,about 0.33
same,"ITCHRO(OBS) score, mean reduction",[2]; at 193 weeks,over 2 points
same,"CSS scores, average decrease","[2]; by week 48, all participants",over 1.5 points
same,"Clinician Xanthoma Score, reduction from baseline","[2]; by week 191, SE 0.3",0.7 points
same,"ITCHRO(OBS) scores, average decrease relative to baseline",[2]; by week 193,over 1.5 points
same,PedsQL Multidimensional Fatigue Scale scores,[2]; core study and extension (p<0.01),Improvements
same,tolerability,"[2]; core study and extension, over three years",well tolerated
same,tolerability,"[2]; doses up, treatment duration up to 4 years",generally well tolerated
same,"sBA concentration, decrease","[2]; first 18 weeks, 400 μg/kg QD",31%
same,"ITCHRO(OBS) scores, mean change from baseline","[2]; first 18 weeks, 400 μg/kg QD, SE 0.2",−1.7
same,Change in ItchRO from Baseline to Week 48 (ITCHRO(OBS) weekly morning average score),[2]; [4],−0.12 and 0.49 and −0.45 and 1.29 and −3.86 and 0.00 and −2.57 and −0.86 (2×) and −0.71 (2×) and −0.00 (2×) and −0.29 and −0.67 and −0.14 and −0.03 and −3.29 (2×) and −3.43 and −2.50 and −2.71 (2×) and −3.50 and −2.29 and −0.17 and −0.43 and −0.83
same,"Serum Bile Acid, Change from Baseline to Week 48",[2]; [4],−56.4 μmol/L and −166.3 μmol/L and −281.4 μmol/L and 166.4 μmol/L and −121.1 μmol/L and 4.3 μmol/L (2×) and −251.0 μmol/L and 3.3 μmol/L and −27.3 μmol/L and −155.5 μmol/L and −240.2 μmol/L and 9.0 μmol/L and 143.1 μmol/L and −112.2 μmol/L and 16.4 μmol/L and −10.9 μmol/L and −16.9 μmol/L and 54.5 μmol/L and −620.4 μmol/L and −23.9 μmol/L and −377.3 μmol/L and −205.9 μmol/L and −270.4 μmol/L and 25.5 μmol/L and −203.6 μmol/L and −96.4 μmol/L and −33.9 μmol/L
same,"Serum Bile Acid, Week 48",[2]; [4],22.9 µmol/L and 131.8 µmol/L and 98.5 µmol/L and 578.1 µmol/L and 20.8 µmol/L and 333.0 µmol/L and 119.6 µmol/L and 117.7 µmol/L and 492.6 µmol/L and 427.9 µmol/L and 199.8 µmol/L and 29.2 µmol/L and 891.6 µmol/L and 163.4 µmol/L and 60.2 µmol/L and 12.0 µmol/L and 23.6 µmol/L and 126.1 µmol/L and 37.0 µmol/L and 7.0 µmol/L and 101.9 µmol/L and 293.3 µmol/L and 65.0 µmol/L and 110.9 µmol/L and 35.8 µmol/L and 208.0 µmol/L and 55.8 µmol/L and 15.6 µmol/L
same,"ItchRO(Obs) Weekly Morning Average Score, Change from Baseline to Week 48",[2]; [5],−0.12 and 0.49 and −0.45 and 1.29 and −3.86 and 0.00 and −2.57 and −0.86 (2×) and −0.71 (2×) and −0.00 (2×) and −0.29 and −0.67 and −0.14 and −0.03 and −3.29 (2×) and −3.43 and −2.50 and −2.71 (2×) and −3.50 and −2.29 and −0.17 and −0.43 and −0.83
same,"ItchRO(Obs) Weekly Morning Average Score, Week 48",[2]; [5],2.71 and 3.20 and 1.83 and 3.71 and 0.14 and 1.86 and 0.71 and 1.14 (2×) and 0.29 (2×) and 2.00 (2×) and 1.71 (2×) and 1.00 and 1.40 and 0.00 (7×) and 1.43 and 1.57 and 3.50 and 2.17
same,"sBA levels, least squares mean difference maralixibat vs placebo","[2]; randomized withdrawal (week 18-22), SE 48.0",−114.0
same,"ITCHRO(OBS), LS mean difference maralixibat vs placebo","[2]; randomized withdrawal, SE 0.3",−1.5
same,"ItchRO(Obs) Weekly Morning Average Score, Week 48 Average Score",[2]; [6],0.00
same,"participants meeting sBA Response Definition, Week 48 (N = 28), %",[2]; [6],(3.6%)
same,"ItchRO(Obs) Weekly Morning Average Score, Average Change from Baseline",[2]; [6],−3.50
same,"ItchRO(Obs) Weekly Morning Average Score, Week 48 Average Score",[2]; sBA ≥50% Reduction,1.07
same,"participants meeting sBA Response Definition, Week 48 (N = 28), %",[2]; sBA ≥50% Reduction,(46.4%)
same,"ItchRO(Obs) Weekly Morning Average Score, Average Change from Baseline",[2]; sBA ≥50% Reduction,−1.86
same,"ItchRO(Obs) Weekly Morning Average Score, Week 48 Average Score",[2]; sBA ≥60% Reduction,0.82
same,"participants meeting sBA Response Definition, Week 48 (N = 28), %",[2]; sBA ≥60% Reduction,(39.3%)
same,"ItchRO(Obs) Weekly Morning Average Score, Average Change from Baseline",[2]; sBA ≥60% Reduction,−2.12
same,"ItchRO(Obs) Weekly Morning Average Score, Week 48 Average Score",[2]; sBA ≥70% Reduction,0.62
same,"participants meeting sBA Response Definition, Week 48 (N = 28), %",[2]; sBA ≥70% Reduction,(28.6%)
same,"ItchRO(Obs) Weekly Morning Average Score, Average Change from Baseline",[2]; sBA ≥70% Reduction,−2.31
same,"ItchRO(Obs) Weekly Morning Average Score, Week 48 Average Score",[2]; sBA ≥80% Reduction,0.11
same,"participants meeting sBA Response Definition, Week 48 (N = 28), %",[2]; sBA ≥80% Reduction,(14.3%)
same,"ItchRO(Obs) Weekly Morning Average Score, Average Change from Baseline",[2]; sBA ≥80% Reduction,−2.79
